Assays:
ADCK3 = biological target: T1, ADCK3 (Homo sapiens, UniProt Q8NI60); test: KINOMEscan panel screen; type: binding; details: read-out: Percent Control(%)
T1 construct: purchased DiscoveRx KINOMEscan (Ambit Biosciences)

CAMK1 = biological target: T2, CAMK1 (Homo sapiens, UniProt Q14012); test: KINOMEscan panel screen; type: binding; details: read-out: Percent Control(%)
T2 construct: purchased DiscoveRx KINOMEscan (Ambit Biosciences)

CDK3 = biological target: T3, CDK3 (Homo sapiens, UniProt Q00526); test: KINOMEscan panel screen; type: binding; details: read-out: Percent Control(%)
T3 construct: purchased DiscoveRx KINOMEscan (Ambit Biosciences)

CSNK1A1L = biological target: T4, CSNK1A1L (Homo sapiens, UniProt Q8N752); test: KINOMEscan panel screen; type: binding; details: read-out: Percent Control(%)
T4 construct: purchased DiscoveRx KINOMEscan (Ambit Biosciences)

DRAK2 = biological target: T5, DRAK2 (Homo sapiens, UniProt O94768); test: KINOMEscan panel screen; type: binding; details: read-out: Percent Control(%)
T5 construct: purchased DiscoveRx KINOMEscan (Ambit Biosciences)

EPHA1 = biological target: T6, EPHA1 (Homo sapiens, UniProt P21709); test: KINOMEscan panel screen; type: binding; details: read-out: Percent Control(%)
T6 construct: purchased DiscoveRx KINOMEscan (Ambit Biosciences)

FLT3(N841I) = biological target: T7, FLT3(N841I) (Homo sapiens, UniProt P36888, N841I); test: KINOMEscan panel screen; type: binding; details: read-out: Percent Control(%)
T7 construct: purchased DiscoveRx KINOMEscan (Ambit Biosciences)

GRK4 = biological target: T8, GRK4 (Homo sapiens, UniProt P32298); test: KINOMEscan panel screen; type: binding; details: read-out: Percent Control(%)
T8 construct: purchased DiscoveRx KINOMEscan (Ambit Biosciences)

HCK = biological target: T9, HCK (Homo sapiens, UniProt P08631); test: KINOMEscan panel screen; type: binding; details: read-out: Percent Control(%)
T9 construct: purchased DiscoveRx KINOMEscan (Ambit Biosciences)

IKK-alpha = biological target: T10, IKK-alpha (Homo sapiens, UniProt O15111); test: KINOMEscan panel screen; type: binding; details: read-out: Percent Control(%)
T10 construct: purchased DiscoveRx KINOMEscan (Ambit Biosciences)

[1] = biological target: T11, JAK1(JH1domain-catalytic) (Homo sapiens, UniProt P23458); test: KINOMEscan panel screen; type: binding; details: read-out: Percent Control(%)
T11 construct: JAK1(JH1domain-catalytic); purchased DiscoveRx KINOMEscan (Ambit Biosciences)

KIT(A829P) = biological target: T12, KIT(A829P) (Homo sapiens, UniProt P10721, A829P); test: KINOMEscan panel screen; type: binding; details: read-out: Percent Control(%)
T12 construct: purchased DiscoveRx KINOMEscan (Ambit Biosciences)

LATS2 = biological target: T13, LATS2 (Homo sapiens, UniProt Q9NRM7); test: KINOMEscan panel screen; type: binding; details: read-out: Percent Control(%)
T13 construct: purchased DiscoveRx KINOMEscan (Ambit Biosciences)

LTK = biological target: T14, LTK (Homo sapiens, UniProt P29376); test: KINOMEscan panel screen; type: binding; details: read-out: Percent Control(%)
T14 construct: purchased DiscoveRx KINOMEscan (Ambit Biosciences)

MARK1 = biological target: T15, MARK1 (Homo sapiens, UniProt Q9P0L2); test: KINOMEscan panel screen; type: binding; details: read-out: Percent Control(%)
T15 construct: purchased DiscoveRx KINOMEscan (Ambit Biosciences)

MTOR = biological target: T16, MTOR (Homo sapiens, UniProt P42345); test: KINOMEscan panel screen; type: binding; details: read-out: Percent Control(%)
T16 construct: purchased DiscoveRx KINOMEscan (Ambit Biosciences)

NEK10 = biological target: T17, NEK10 (Homo sapiens, UniProt Q6ZWH5); test: KINOMEscan panel screen; type: binding; details: read-out: Percent Control(%)
T17 construct: purchased DiscoveRx KINOMEscan (Ambit Biosciences)

NEK9 = biological target: T18, NEK9 (Homo sapiens, UniProt Q8TD19); test: KINOMEscan panel screen; type: binding; details: read-out: Percent Control(%)
T18 construct: purchased DiscoveRx KINOMEscan (Ambit Biosciences)

PAK2 = biological target: T19, PAK2 (Homo sapiens, UniProt Q13177); test: KINOMEscan panel screen; type: binding; details: read-out: Percent Control(%)
T19 construct: purchased DiscoveRx KINOMEscan (Ambit Biosciences)

PCTK1 = biological target: T20, PCTK1 (Homo sapiens, UniProt Q00536); test: KINOMEscan panel screen; type: binding; details: read-out: Percent Control(%)
T20 construct: purchased DiscoveRx KINOMEscan (Ambit Biosciences)

PIK3CA(E545A) = biological target: T21, PIK3CA(E545A) (Homo sapiens, UniProt P42336, E545A); test: KINOMEscan panel screen; type: binding; details: read-out: Percent Control(%)
T21 construct: purchased DiscoveRx KINOMEscan (Ambit Biosciences)

PLK3 = biological target: T22, PLK3 (Homo sapiens, UniProt Q9H4B4); test: KINOMEscan panel screen; type: binding; details: read-out: Percent Control(%)
T22 construct: purchased DiscoveRx KINOMEscan (Ambit Biosciences)

SRPK2 = biological target: T23, SRPK2 (Homo sapiens, UniProt P78362); test: KINOMEscan panel screen; type: binding; details: read-out: Percent Control(%)
T23 construct: purchased DiscoveRx KINOMEscan (Ambit Biosciences)

TAOK2 = biological target: T24, TAOK2 (Homo sapiens, UniProt Q9UL54); test: KINOMEscan panel screen; type: binding; details: read-out: Percent Control(%)
T24 construct: purchased DiscoveRx KINOMEscan (Ambit Biosciences)

TGFBR2 = biological target: T25, TGFBR2 (Homo sapiens, UniProt P37173); test: KINOMEscan panel screen; type: binding; details: read-out: Percent Control(%)
T25 construct: purchased DiscoveRx KINOMEscan (Ambit Biosciences)

LOK = LOK (Homo sapiens, UniProt O94804); test: KINOMEscan kinase binding assay (Kd)
[2] = tested on: HSCs (LSK cells), WBC and RBC; test: Influence on normal HSCs and blood cells in Balb/c mice; type: in vivo, mouse; details: Balb/c mice, 1, 3, 10 mg/kg/d orally for 21 days
Method: To examine whether SKLB-677 has influence on normal HSCs and normal blood cells, we performed an experiment using a Balb/c mouse model, in which Balb/c mice (n = 8 in each group) were treated with indicated concentrations of SKLB-677 for 21 days, followed by detections of the proportion of HSCs (immunophenotypically characterized as Lineage^−Sca-1^+ c-Kit^+ (LSK) cells), white blood cell (WBC) and red blood cell (RBC) counts. […]
were d etected usin g BD FACSAriaⅢflow c ytometer.
Isolation of murine Bone Marrow ( BM) cells.
Balb/c mice were grouped to 4 groups (4 female mice and 4 male mice p er group) and orally treated with 0, 1, 3, and 10m g/kg/ d SKLB -677 for 21 da ys . […]
Supplementary Figure S7.The influence of SKLB -677 on mouse normal HSC and blood cells (8 mice in each group) . a ,b, The mice were o rally treat ed with indicated concentr ations o f S K LB -677 for 21d, and then W BC and RBC were counted using a blood anal yzer instrument. ns, not statistically significant. c , Th e mice were orally treated with indicated do ses of SK LB-677 for 21d, and the blood marrow cells were collected for the detection of HSC (immunophenot ypicall y ch aracterized as Lineage-Sca-1+c-Kit+, LSK) populationusing corresponding antibodies. d, The statistical data of HSC numbers. ns, not statistically significant. […]

MDA-MB-231 = test: MTT cell viability assay; details: Homo sapiens, MDA-MB-231, 72 h

T5 sequence (O94768 whole entry): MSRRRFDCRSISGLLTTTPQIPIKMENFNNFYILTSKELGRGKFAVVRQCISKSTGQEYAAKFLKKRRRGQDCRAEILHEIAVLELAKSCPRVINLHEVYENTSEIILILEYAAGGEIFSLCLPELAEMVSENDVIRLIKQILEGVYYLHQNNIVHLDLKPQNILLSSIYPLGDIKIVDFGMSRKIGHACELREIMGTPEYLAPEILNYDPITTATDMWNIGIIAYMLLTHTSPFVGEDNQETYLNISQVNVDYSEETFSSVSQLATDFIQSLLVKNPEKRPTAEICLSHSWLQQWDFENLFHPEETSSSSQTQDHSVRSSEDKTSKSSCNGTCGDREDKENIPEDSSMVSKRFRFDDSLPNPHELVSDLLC
T1 sequence (Q8NI60 163-647): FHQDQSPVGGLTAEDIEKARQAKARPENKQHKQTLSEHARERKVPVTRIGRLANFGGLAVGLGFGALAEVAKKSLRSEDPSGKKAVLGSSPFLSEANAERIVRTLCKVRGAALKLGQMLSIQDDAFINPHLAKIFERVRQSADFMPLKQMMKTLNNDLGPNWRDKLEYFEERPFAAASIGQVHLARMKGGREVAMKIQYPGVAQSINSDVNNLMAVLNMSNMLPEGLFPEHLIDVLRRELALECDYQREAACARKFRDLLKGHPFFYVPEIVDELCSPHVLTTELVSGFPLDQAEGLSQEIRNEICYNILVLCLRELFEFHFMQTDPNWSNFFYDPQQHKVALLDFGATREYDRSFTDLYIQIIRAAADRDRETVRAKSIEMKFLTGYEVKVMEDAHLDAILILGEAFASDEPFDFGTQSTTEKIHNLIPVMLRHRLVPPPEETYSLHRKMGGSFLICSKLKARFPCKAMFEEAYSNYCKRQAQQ
T8 sequence (P32298 whole entry): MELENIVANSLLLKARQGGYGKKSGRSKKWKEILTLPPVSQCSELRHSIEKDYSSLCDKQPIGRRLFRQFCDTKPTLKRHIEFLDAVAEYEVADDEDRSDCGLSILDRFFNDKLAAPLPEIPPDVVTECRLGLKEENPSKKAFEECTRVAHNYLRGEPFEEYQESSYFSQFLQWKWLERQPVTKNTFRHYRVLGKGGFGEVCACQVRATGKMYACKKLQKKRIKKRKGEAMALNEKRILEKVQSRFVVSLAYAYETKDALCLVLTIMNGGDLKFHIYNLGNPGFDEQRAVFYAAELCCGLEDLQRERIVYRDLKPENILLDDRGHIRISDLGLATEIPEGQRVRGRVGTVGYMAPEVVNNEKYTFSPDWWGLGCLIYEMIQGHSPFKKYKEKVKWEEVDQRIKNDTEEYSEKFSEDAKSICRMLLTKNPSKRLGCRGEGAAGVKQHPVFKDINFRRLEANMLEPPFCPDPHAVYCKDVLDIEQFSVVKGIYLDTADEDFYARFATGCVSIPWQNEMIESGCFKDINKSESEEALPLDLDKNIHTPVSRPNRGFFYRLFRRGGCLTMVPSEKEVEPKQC
T19 sequence (Q13177 whole entry): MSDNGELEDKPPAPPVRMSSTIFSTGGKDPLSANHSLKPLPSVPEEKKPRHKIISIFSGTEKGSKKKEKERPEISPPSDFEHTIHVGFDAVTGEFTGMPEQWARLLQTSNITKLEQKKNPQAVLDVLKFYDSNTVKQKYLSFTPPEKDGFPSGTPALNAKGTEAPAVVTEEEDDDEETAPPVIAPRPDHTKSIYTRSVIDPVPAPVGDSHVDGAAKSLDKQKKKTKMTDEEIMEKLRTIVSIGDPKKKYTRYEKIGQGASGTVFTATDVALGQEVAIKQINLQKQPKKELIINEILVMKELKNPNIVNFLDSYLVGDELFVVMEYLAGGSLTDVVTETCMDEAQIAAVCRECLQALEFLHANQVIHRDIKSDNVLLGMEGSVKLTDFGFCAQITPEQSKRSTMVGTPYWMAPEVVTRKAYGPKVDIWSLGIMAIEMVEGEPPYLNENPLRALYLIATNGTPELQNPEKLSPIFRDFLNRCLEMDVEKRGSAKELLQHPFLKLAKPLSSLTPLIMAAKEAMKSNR
T11 sequence (P23458 854-1154 limits assumed): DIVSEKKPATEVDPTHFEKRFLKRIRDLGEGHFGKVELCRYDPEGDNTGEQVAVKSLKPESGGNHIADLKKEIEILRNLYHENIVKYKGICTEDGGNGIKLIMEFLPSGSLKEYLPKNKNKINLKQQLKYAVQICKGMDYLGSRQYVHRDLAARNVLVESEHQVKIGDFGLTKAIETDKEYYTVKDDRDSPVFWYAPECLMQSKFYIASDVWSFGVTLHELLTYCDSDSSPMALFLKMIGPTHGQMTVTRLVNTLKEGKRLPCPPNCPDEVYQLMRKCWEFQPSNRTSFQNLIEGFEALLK
T14 sequence (P29376 17-864): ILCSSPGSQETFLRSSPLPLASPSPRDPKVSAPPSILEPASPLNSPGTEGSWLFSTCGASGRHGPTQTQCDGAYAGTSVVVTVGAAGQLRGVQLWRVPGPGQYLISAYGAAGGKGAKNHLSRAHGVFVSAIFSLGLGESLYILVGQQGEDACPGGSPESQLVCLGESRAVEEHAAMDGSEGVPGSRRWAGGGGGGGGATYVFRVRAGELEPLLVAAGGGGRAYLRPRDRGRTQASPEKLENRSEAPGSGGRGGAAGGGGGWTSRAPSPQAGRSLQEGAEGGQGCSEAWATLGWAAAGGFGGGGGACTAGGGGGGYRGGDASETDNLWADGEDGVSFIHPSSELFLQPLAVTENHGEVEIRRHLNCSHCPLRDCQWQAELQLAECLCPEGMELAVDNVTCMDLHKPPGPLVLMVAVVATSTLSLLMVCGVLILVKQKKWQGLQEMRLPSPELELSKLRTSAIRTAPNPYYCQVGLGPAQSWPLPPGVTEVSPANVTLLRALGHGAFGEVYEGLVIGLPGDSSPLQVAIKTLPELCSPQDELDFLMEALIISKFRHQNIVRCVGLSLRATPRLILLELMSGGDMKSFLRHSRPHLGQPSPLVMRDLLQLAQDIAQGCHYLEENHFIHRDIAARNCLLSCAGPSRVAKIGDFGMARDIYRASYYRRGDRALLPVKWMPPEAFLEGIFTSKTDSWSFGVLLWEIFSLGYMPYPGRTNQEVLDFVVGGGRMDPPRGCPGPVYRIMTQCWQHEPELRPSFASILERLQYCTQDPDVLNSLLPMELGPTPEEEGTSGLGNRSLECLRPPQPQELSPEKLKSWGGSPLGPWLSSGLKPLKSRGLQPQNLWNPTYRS
Chain of LOK (O94804 whole entry): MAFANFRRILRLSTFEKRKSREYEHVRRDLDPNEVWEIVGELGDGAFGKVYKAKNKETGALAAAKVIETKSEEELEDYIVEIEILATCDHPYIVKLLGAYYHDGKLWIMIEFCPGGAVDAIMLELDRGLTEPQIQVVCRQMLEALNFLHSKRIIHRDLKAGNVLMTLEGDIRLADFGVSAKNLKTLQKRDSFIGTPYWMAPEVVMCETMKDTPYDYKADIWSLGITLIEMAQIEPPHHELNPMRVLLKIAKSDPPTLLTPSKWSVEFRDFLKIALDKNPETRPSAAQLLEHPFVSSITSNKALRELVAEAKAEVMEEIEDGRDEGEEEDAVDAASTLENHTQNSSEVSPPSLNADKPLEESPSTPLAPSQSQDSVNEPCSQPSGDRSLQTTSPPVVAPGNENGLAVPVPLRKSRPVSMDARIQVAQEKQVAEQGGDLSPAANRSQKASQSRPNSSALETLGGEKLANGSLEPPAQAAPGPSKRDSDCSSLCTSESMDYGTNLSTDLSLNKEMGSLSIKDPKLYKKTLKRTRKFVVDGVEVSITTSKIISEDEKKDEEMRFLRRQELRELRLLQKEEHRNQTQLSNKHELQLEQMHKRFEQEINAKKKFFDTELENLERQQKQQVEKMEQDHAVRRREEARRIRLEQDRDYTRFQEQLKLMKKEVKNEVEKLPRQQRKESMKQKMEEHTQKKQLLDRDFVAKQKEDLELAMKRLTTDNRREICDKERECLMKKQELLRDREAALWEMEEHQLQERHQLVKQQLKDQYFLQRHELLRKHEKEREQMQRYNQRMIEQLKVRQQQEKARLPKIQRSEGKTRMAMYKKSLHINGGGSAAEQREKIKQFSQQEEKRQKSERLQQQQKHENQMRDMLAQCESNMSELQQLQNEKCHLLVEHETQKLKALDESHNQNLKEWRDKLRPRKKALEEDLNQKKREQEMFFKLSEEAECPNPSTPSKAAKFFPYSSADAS
T20 sequence (Q00536 whole entry): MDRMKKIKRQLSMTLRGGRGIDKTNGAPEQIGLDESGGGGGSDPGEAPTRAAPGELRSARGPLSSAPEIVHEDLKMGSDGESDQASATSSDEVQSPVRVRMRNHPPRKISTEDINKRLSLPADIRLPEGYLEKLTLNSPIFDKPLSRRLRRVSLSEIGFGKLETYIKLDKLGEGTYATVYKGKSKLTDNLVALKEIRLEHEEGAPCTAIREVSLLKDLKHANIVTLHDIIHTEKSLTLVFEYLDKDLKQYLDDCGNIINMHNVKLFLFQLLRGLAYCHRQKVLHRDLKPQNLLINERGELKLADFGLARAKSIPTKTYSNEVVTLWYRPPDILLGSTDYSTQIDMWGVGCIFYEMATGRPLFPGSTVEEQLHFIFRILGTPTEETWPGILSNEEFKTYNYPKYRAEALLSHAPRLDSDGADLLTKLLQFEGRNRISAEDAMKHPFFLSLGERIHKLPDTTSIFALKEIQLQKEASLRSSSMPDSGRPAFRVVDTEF
T12 sequence (P10721 546-976 A829P limits assumed): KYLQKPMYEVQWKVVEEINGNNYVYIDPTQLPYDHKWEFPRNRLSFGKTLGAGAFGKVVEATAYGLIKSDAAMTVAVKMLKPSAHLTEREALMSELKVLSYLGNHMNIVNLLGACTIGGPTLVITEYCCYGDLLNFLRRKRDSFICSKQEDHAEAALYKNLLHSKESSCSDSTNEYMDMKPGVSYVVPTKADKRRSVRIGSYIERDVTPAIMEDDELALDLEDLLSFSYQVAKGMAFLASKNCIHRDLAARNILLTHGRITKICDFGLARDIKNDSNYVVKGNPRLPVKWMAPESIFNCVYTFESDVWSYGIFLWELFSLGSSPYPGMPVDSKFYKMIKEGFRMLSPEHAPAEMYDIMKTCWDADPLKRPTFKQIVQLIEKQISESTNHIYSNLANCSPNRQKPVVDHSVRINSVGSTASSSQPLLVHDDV

## CC(C)(C)c1cc(NC(=O)Nc2ccc(Oc3ncnc4[nH]ncc34)c(F)c2)no1 [SKLB-677, 1-(4-(1H-pyrazolo[3,4-d]pyrimidin-4-yloxy)-3-fluorophenyl)-3-(5-tert-butylisoxazol-3-yl)urea]
ADCK3
  remaining binding at 10 µM: 100%
CAMK1
  remaining binding at 10 µM: 21%
CDK3
  remaining binding at 10 µM: 0.2%
CSNK1A1L
  remaining binding at 10 µM: 68%
DRAK2
  remaining binding at 10 µM: 78%
EPHA1
  remaining binding at 10 µM: 9.2%
FLT3(N841I)
  remaining binding at 10 µM: 0%
GRK4
  remaining binding at 10 µM: 45%
HCK
  remaining binding at 10 µM: 0.5%
IKK-alpha
  remaining binding at 10 µM: 75%
[1]
  remaining binding at 10 µM: 12%
KIT(A829P)
  remaining binding at 10 µM: 15%
LATS2
  remaining binding at 10 µM: 26%
LTK
  remaining binding at 10 µM: 1.2%
MARK1
  remaining binding at 10 µM: 78%
MTOR
  remaining binding at 10 µM: 100%
NEK10
  remaining binding at 10 µM: 93%
NEK9
  remaining binding at 10 µM: 54%
PAK2
  remaining binding at 10 µM: 79%
PCTK1
  remaining binding at 10 µM: 0.2%
PIK3CA(E545A)
  remaining binding at 10 µM: 86%
PLK3
  remaining binding at 10 µM: 100%
SRPK2
  remaining binding at 10 µM: 100%
TAOK2
  remaining binding at 10 µM: 0.35%
TGFBR2
  remaining binding at 10 µM: 100%
LOK
  Kd: 5.1 nM
[2]
  HSCs (LSK cells): not inhibited
  white and red blood counts: normal
MDA-MB-231
  IC50: > 10000 nM
